Values after ≈ are worked out from the molar mass of the structure shown.

The first data set has as its system Mycobacterium tuberculosis. Put plainly: Antimycobacterial activity against Mycobacterium tuberculosis H37Rv after 8 days by MABA assay. Format: functional. Conditions: 192 h.
On to `O=[N+]([O-])c1cn2c(n1)OC[C@@H](OCc1c(Cl)cc(-c3ccc(OC(F)(F)F)cc3)cc1Cl)C2`, for which the MIC90 is 0.62 µM (≈ 0.313 µg/mL).

With `O=[N+]([O-])c1cn2c(n1)OC[C@@H](OCc1ccc(-c3ccc(OC(F)(F)F)cc3)c(F)c1)C2`, the MIC90 amounted to 0.055 µM (≈ 0.0249 µg/mL).

Molecule `O=[N+]([O-])c1cn2c(n1)OC[C@@H](OCc1ccc(-c3ccc(OC(F)(F)F)cc3)c(Cl)c1)C2` displayed an MIC90 of 0.21 µM (≈ 0.0987 µg/mL).

On to `O=[N+]([O-])c1cn2c(n1)OCC(COc1ccc(-c3ccc(F)cc3)cc1)C2` (centres undefined), for which the MIC90 is 0.03 µM (≈ 0.0111 µg/mL).

`O=[N+]([O-])c1cn2c(n1)OCC(COc1ccc(-c3ccc(OC(F)(F)F)cc3)cc1)C2` (centres undefined) registered an MIC90 of 0.14 µM (≈ 0.061 µg/mL).

The molecule `O=[N+]([O-])c1cn2c(n1)OCC(COc1ccc(-c3ccc(C(F)(F)F)cc3)cn1)C2` (centres undefined) came in with an MIC90 of 0.04 µM (≈ 0.0168 µg/mL).

The test system of the next data set is Mycobacterium tuberculosis. Put plainly: Antimycobacterial activity against Mycobacterium tuberculosis H37Rv after 11 days by LORA assay. Format: functional. Conditions: 264 h.
For the molecule `O=[N+]([O-])c1cn2c(n1)OC[C@@H](OCc1c(Cl)cc(-c3ccc(OC(F)(F)F)cc3)cc1Cl)C2`, the MIC90 worked out at 11 µM (≈ 5.55 µg/mL).

Molecule `O=[N+]([O-])c1cn2c(n1)OC[C@@H](OCc1ccc(-c3ccc(OC(F)(F)F)cc3)c(F)c1)C2` had an MIC90 of 0.51 µM (≈ 0.231 µg/mL).

Molecule `O=[N+]([O-])c1cn2c(n1)OC[C@@H](OCc1ccc(-c3ccc(OC(F)(F)F)cc3)c(Cl)c1)C2` displayed an MIC90 of 1.5 µM (≈ 0.705 µg/mL).

As to `O=[N+]([O-])c1cn2c(n1)OCC(COc1ccc(-c3ccc(F)cc3)cc1)C2` (centres undefined), the MIC90 turned out to be 108 µM (≈ 39.9 µg/mL).

With `O=[N+]([O-])c1cn2c(n1)OCC(COc1ccc(-c3ccc(OC(F)(F)F)cc3)cc1)C2` (centres undefined), the MIC90 was more than 128 µM.

In the case of `O=[N+]([O-])c1cn2c(n1)OCC(COc1ccc(-c3ccc(C(F)(F)F)cc3)cn1)C2` (centres undefined), the MIC90 stood at 109 µM (≈ 45.8 µg/mL).

Test system in another data set: not listed separately
Nature of the data set: Metabolic stability in human liver microsomes assessed as compound remaining after 1 hr. The settings on record: read-out: Stability. Format: ADME.
Regarding `O=[N+]([O-])c1cn2c(n1)OCC(COCc1ccc(OC(F)(F)F)cc1)C2` (centres undefined), the remaining at 1 h is 71%.

Regarding `O=[N+]([O-])c1cn2c(n1)OC[C@@H](OCc1c(Cl)cc(-c3ccc(OC(F)(F)F)cc3)cc1Cl)C2`, the remaining at 1 h is 98%.

Consider `O=[N+]([O-])c1cn2c(n1)OCC(COc1ccc(-c3ccc(OC(F)(F)F)cc3)cc1)C2` (centres undefined), for which the remaining at 1 h is 100%.

Test system in the next data set: not listed separately
Nature of the data set: Metabolic stability in CD1 mouse liver microsomes assessed as compound remaining after 1 hr. Format: ADME. The settings on record: read-out: Stability.
With `O=[N+]([O-])c1cn2c(n1)OCC(COCc1ccc(OC(F)(F)F)cc1)C2` (centres undefined), the remaining at 1 h turned out to be 41%.

On to `O=[N+]([O-])c1cn2c(n1)OC[C@@H](OCc1c(Cl)cc(-c3ccc(OC(F)(F)F)cc3)cc1Cl)C2`, for which the remaining at 1 h turned out to be 93%.

As to `O=[N+]([O-])c1cn2c(n1)OCC(COc1ccc(-c3ccc(OC(F)(F)F)cc3)cc1)C2` (centres undefined), the remaining at 1 h was determined as 93%.

The test system of a further data set is Vero. Nature of the data set: Cytotoxicity against African green monkey Vero cells after 72 hrs. Format: cell-based. The settings on record: Chlorocebus sabaeus.
`O=[N+]([O-])c1cn2c(n1)OCC(COCc1ccc(OC(F)(F)F)cc1)C2` (centres undefined) came in with an IC50 of 46 µM.

`O=[N+]([O-])c1cn2c(n1)OCC(COc1ccc(OC(F)(F)F)cc1)C2` (centres undefined) displayed a concentration for half-maximal inhibition (IC50) of more than 128 µM.

As to `O=[N+]([O-])c1cn2c(n1)OC[C@@H](OCc1c(Cl)cc(-c3ccc(OC(F)(F)F)cc3)cc1Cl)C2`, the half-inhibitory concentration (IC50) was more than 128 µM.

In turn, `O=[N+]([O-])c1cn2c(n1)OC[C@@H](OCc1ccc(-c3ccc(OC(F)(F)F)cc3)c(F)c1)C2` displayed a concentration for half-maximal inhibition (IC50) of more than 128 µM.

In the case of `O=[N+]([O-])c1cn2c(n1)OC[C@@H](OCc1ccc(-c3ccc(OC(F)(F)F)cc3)c(Cl)c1)C2`, the half-inhibitory concentration (IC50) was more than 128 µM.

In turn, `O=[N+]([O-])c1cn2c(n1)OCC(COc1ccc(-c3ccc(F)cc3)cc1)C2` (centres undefined) registered a half-inhibitory concentration (IC50) of more than 128 µM.

`O=[N+]([O-])c1cn2c(n1)OCC(COc1ccc(-c3ccc(OC(F)(F)F)cc3)cc1)C2` (centres undefined) came in with a 50% inhibitory concentration (IC50) of more than 128 µM.

The molecule `O=[N+]([O-])c1cn2c(n1)OCC(COc1ccc(-c3ccc(C(F)(F)F)cc3)cn1)C2` (centres undefined) registered an IC50 of more than 128 µM.

For another data set, the system named is Mycobacterium tuberculosis. Put plainly: Antimycobacterial activity against Mycobacterium tuberculosis infected in mouse assessed as fold reduction of colony forming units in lungs at 100 mg/kg, po administered for 5 days a week for 3 weeks beginning on day 11 post-infection relative to pretomanid. Format: functional.
Conditions: not given
Regarding `O=[N+]([O-])c1cn2c(n1)OCC(COc1ccc(-c3ccc(OC(F)(F)F)cc3)cc1)C2` (centres undefined), the Ratio is on record as 2.

The test system of a further data set is Plasma. Nature of the data set: AUC (0 to infinity) in CD1 mouse plasma at 40 mg/kg, po. Format: ADME, organism-based. Details: dose 40 mg/kg, route oral, time infinity. The settings on record: in vivo.
For the molecule `O=[N+]([O-])c1cn2c(n1)OC[C@@H](OCc1ccc(-c3ccc(OC(F)(F)F)cc3)cc1)C2`, the AUC is 198 µg/h/mL.

The test system of another data set is Lung. Nature of the data set: AUC (0 to infinity) in CD1 mouse lung at 40 mg/kg, po. The settings on record: in vivo. Format: ADME, organism-based. Details: dose 40 mg/kg, time infinity, route oral.
With `O=[N+]([O-])c1cn2c(n1)OC[C@@H](OCc1ccc(-c3ccc(OC(F)(F)F)cc3)cc1)C2`, the AUC worked out at 218 µg/h/mL.

These data come from ChEMBL document CHEMBL3608202, “Biarylmethoxy 2-nitroimidazooxazine antituberculosis agents: Effects of proximal ring substitution and linker reversal on metabolism and efficacy” (Bioorg Med Chem Lett, 2015).
